Results as given in patent publication US8101605B2, “SHIP1 modulators and methods related thereto” (Aquinox Pharmaceuticals Inc., priority 2009, dated 2012).

What was measured:
[1] = tested on: allergen-induced passive cutaneous anaphylaxis; assay: Passive cutaneous anaphylaxis in mice; format: in vivo; settings: oral gavage, doses less than 20 mg/kg
Description: The activity of representative compounds on passive cutaneous anaphylaxis in mice was evaluated according to the procedures disclosed by Ovary, J Immunol 81, 355-357, 1958 and Halpern et al., Br J Pharmacol Chemother 20, 389-398, 1963, both of which are incorporated herein by reference in their entirety. To induce a passive cutaneous anaphylaxis, mice underwent intradermal ear inoculation on their right ear with 25 ng in 20 μL of anti-DNP-IgE. The left ears were untreated and served as negative controls. Twenty-four hours after inoculation, all mice were administered test compound by oral gavage (PO). Sixty minutes after oral administration, mice were given a tail vein injection of 2% Evan's blue (0.2 μm filtered, in 200 μL saline) followed by a second tail IV injection of 100 μg DNP-HSA (in 200 μL). Sixty minutes following the DNP-HSA injection, mice were euthanized using CO2 inhalation. Subsequently, ear biopsies were performed by taking four millimetre punches from both ears, which then underwent Evan's Blue extraction using formamide incubation in 96 well plates. Eighty μL of eluents were transferred to flat-bottom 96-well plates and absorbance read using SpectraMax M5 spectrophotometer (Molecular Devices, Sunnyvale, Calif., USA) at 620 nm. Background readings from all samples were taken at 740 nm and subtracted from the 620 nm readings. Data were reported as OD. […] Scoring in Table 4 is expressed as follows: + (1-30% inhibition); ++ (31-50% inhibition); +++ (>50% inhibition).

[2] = target: T1, His-hSHIP1 enzyme (Homo sapiens, UniProt Q92835); assay: His-hSHIP1 phosphatase activity assay (IP4 substrate, Biomol Green); format: biochemical; settings: percentage increase relative to background; concentrations ≦300 μM
T1 sequence (Q92835 1-1189): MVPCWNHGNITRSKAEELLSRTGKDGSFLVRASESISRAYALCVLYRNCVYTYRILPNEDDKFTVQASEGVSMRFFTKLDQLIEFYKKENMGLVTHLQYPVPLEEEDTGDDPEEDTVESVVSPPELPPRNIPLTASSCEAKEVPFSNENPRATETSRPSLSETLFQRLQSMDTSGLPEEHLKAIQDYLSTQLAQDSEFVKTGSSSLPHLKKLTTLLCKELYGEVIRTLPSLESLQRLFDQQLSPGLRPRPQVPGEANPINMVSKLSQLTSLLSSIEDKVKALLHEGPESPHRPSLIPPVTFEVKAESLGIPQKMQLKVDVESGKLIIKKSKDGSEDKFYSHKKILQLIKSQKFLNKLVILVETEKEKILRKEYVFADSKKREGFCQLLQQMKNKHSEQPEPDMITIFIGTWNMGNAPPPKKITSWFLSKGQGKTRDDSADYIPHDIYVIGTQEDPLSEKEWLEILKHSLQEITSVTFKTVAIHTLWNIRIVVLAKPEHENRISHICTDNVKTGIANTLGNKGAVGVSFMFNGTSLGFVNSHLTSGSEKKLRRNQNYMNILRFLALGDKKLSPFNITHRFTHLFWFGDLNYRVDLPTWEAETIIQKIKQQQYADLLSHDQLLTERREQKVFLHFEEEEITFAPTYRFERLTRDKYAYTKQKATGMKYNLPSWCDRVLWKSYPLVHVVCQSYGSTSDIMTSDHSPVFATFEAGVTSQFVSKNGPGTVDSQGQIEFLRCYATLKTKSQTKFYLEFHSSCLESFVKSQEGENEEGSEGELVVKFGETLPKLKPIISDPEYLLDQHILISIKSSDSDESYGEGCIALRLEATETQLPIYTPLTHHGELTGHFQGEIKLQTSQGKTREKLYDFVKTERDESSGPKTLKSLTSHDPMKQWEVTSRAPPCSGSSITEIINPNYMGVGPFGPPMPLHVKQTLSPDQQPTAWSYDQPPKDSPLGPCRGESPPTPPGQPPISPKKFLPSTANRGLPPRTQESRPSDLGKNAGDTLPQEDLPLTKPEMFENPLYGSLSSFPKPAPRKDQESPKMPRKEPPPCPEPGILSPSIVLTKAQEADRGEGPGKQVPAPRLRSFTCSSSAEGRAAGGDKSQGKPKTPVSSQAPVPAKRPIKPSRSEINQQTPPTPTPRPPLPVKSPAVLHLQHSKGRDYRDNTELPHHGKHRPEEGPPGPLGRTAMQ
How it was run: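 His-hSHIP1 (15–20 ng) was incubated with IP4 (50 μM final) and compound (0–300 μM final, from 10% ethanol solutions) in 20 mM Tris-HCl, 10 mM MgCl2 pH 7.5, 0.02% Tween 20 for 15 min at 37 °C. Released phosphate was read with Biomol Green at 650 nm. Activation is % increase over background, scored + (<50%), ++ (≥50% but <65%), +++ (≥65%).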

For CC1(C)CCC[C@]2(C)[C@H]3COc4c(O)cc(O)cc4[C@]3(C)CC[C@@H]12 [Compound No. 43, (1R,10R,11S,16S)-1,11,15,15-tetramethyl-8-oxatetracyclo[8.8.0.0^2,7.0^11,16]octadeca-2,4,6-triene-4,6-diol], which “Scoring: inhibition of passive cutaneous anaphylaxis” value [1] is on record?
The value was “+ (1-30% inhibition)”.

What about the “Scoring: percent (%) activation of His-hSHIP1 enzyme” value [2] of the same compound?
The value was “+ (<50%)”.
